IC50 data for 51 compounds are collected here from patent US20080269293A1, “PYRAZOLE DERIVATIVES AS ANTI-PLATELET AND ANTI-THROMBOTIC AGENTS” (Pfizer Inc., priority 2006, published 2008).

T1 sequence (P47900 whole entry): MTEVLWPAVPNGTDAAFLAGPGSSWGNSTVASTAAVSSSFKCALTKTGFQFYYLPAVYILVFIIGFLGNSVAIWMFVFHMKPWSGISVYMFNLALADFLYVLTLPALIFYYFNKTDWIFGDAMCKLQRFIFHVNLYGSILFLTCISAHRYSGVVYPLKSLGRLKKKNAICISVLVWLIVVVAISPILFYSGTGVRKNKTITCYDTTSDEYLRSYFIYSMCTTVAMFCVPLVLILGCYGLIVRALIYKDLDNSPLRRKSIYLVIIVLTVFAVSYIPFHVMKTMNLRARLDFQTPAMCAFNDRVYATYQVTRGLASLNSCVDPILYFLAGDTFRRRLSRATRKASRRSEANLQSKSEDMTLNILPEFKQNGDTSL

The experiment concerns the target T1, platelet P2Y1 receptor (Homo sapiens, UniProt P47900).
T1 construct: expressed in transfected cells
The experiment is described as follows: P2Y1 receptor binding assay ([β-33P]-2-thiomethyl ADP). To be noted: binding of 0.3 nM [β-33P]-2-thiomethyl ADP, hP2Y1 expressing 132N1 cell membrane, 25° C., 60 minutes. As for the experimental part: Conducting P2Y, Receptor Binding Assay
[β−^33P]-2-thiomethyl ADP (2100 Ci/mmol) was purchased from PerkinElmer, Protease Inhibitors Complete, EDTA-free, was purchased from Roche, and ADP (Adenosine diphosphate), MRS2179, and 2-thiomethy ADP (2-Me-S-ADP) were purchased from Sigma Chemical Co.
Binding of 0.3 nM [β-^33P]-2-thiomethyl ADP to platelet P2Y1 receptor in 132N1 cell membrane was carried out in triplicate at 25° C. with 96 well plate (Corning, 3365). Nonspecific binding was defined as binding in the presence of 1 μM of 2-Me-S-ADP. One […] of dimethyl sulfoxide (DMSO) or 1 μL of DMSO (Sigma-Aldrich, 472301) containing a test compound diluted to final assay concentrations of 0.1 nM to 1 mM were placed into each well of a Corning 96-well plate. A volume of 60 μL of buffer: 50 mM Tris pH 7.5 (Sigma, T-2194), 1 mM EDTA (Gibco, 15575-038) and 100 mM NaCl (Gibco, 200740-011) containing 0.3 nM [β-^33P]-2-thiomethyl ADP 40 μL of hP2Y1 expressing 132N1 cell membrane prep was added to each well. After incubation on shaker for 60 minutes, The contents of the wells are filtered and washed 8 times with Tomtec Cell Harvester through UniFilter 96, GF/B plates (PerkinElmer, 6005177) Forty five microliters […] Scintillation cocktail (Ultima-Flo-M) was added into each well and plates counted on a Trilux Microbeta Counter.
• 1. Add 1 μL DMSO or compounds into the wells according to the protocol. • 2. Add 60 μL incubation buffer with [β-^33P]-2-thiomethyl ADP into each well. • 3. Add 40 μL hP2Y1 expressing 132N1 cell membrance prep. Incubate 60 minutes on top of the shaker (IKA Shutter MTS4). • 4. Filter and wash 8× with Tomtec Cell Harvester through UniFilter GF/B plates (PerkinElmer, 6005177). • 5. Add 45 μL scintillation cocktail into each well and plates counted on a Trilux Microbeta Counter.
What is called IC50 is the concentration at which inhibition is half-maximal. With “1-Phenyl-5-{2-[3-(4-trifluoromethoxy-phenyl)-ureido]-phenoxy}-1H-pyrazole-3-carboxylic acid methyl ester [Example 26]”, the half-inhibitory concentration (IC50) is greater than 10000 nM.

With `Cc1cc(Oc2ccccc2NC(=O)Nc2ccc(OC(F)(F)F)cc2)n(-c2ccccc2C)n1` [Example 1, 1-[2-(5-Methyl-2-o-tolyl-2H-pyrazol-3-yloxy)-phenyl]-3-(4-trifluoromethoxy-phenyl)-urea], the half-inhibitory concentration (IC50) was determined as 152 nM.

In the case of `Cc1cc(Oc2ccccc2NC(=O)Nc2ccc(OC(F)(F)F)cc2)n(-c2ccccc2Cl)n1` [Example 2, 1-{2-[2-(2-Chloro-phenyl)-5-methyl-2H-pyrazol-3-yloxy]-phenyl}-3-(4-trifluoromethoxy-phenyl)-urea], the IC50 turned out to be 89 nM.

As to `CCc1ccccc1-n1nc(C)cc1Oc1ccccc1NC(=O)Nc1ccc(OC(F)(F)F)cc1` [Example 3], the IC50 turned out to be 48 nM.

`Cc1cc(Oc2ccccc2NC(=O)Nc2ccc(OC(F)(F)F)cc2)n(-c2cccc(Cl)c2Cl)n1` [Example 4] had a 50% inhibitory concentration (IC50) of 89 nM.

The compound `Cc1cccc(-n2nc(C)cc2Oc2ccccc2NC(=O)Nc2ccc(OC(F)(F)F)cc2)c1` [Example 5] yielded a half-inhibitory concentration (IC50) of 459 nM.

In turn, `Cc1cc(Oc2ccccc2NC(=O)Nc2ccc(C(C)(C)C)cc2)n(-c2ccccc2Cl)n1` [Example 6] displayed an IC50 of 95 nM.

Consider `Cc1cc(Oc2ccccc2NC(=O)Nc2ccc(OC(F)(F)F)cc2)n(-c2cccc(Cl)c2)n1` [Example 7], for which the half-maximal inhibitory concentration (IC50) is 122 nM.

Take `Cc1cc(Oc2ccccc2NC(=O)Nc2ccc(OC(F)(F)F)cc2)n(-c2ccccc2C(F)(F)F)n1` [Example 8]: the IC50 amounted to 128 nM.

The compound `Cc1cc(Oc2ccccc2NC(=O)Nc2ccc(OC(F)(F)F)cc2)n(-c2ccccc2F)n1` [Example 9] displayed a half-inhibitory concentration (IC50) of 253 nM.

Compound `Cc1ccc(-n2nc(C)cc2Oc2ccccc2NC(=O)Nc2ccc(OC(F)(F)F)cc2)cc1` [Example 10] gave an IC50 of 188 nM.

As to `COc1ccccc1-n1nc(C)cc1Oc1ccccc1NC(=O)Nc1ccc(OC(F)(F)F)cc1` [Example 11], the IC50 turned out to be 991 nM.

Take `Cc1cc(Oc2ccccc2NC(=O)Nc2ccc(C(C)(C)C)cc2)n(-c2ccccc2)n1` [Example 12]: the IC50 was determined as 207 nM.

`Cc1cc(Oc2ccccc2NC(=O)Nc2ccc(OC(F)(F)F)cc2)n(-c2ccc(Cl)cc2)n1` [Example 13] came in with a 50% inhibitory concentration (IC50) of 246 nM.

Take `Cc1cc(Oc2ccccc2NC(=O)Nc2ccc(OC(F)(F)F)cc2)n(-c2ccc(F)cc2F)n1` [Example 14]: the IC50 was 133 nM.

`Cc1cc(Oc2ccccc2NC(=O)Nc2ccc(OC(F)(F)F)cc2)n(-c2ccc(F)cc2)n1` [Example 15] yielded an IC50 of 283 nM.

As to `Cc1cc(Oc2ccccc2NC(=O)Nc2ccc(OC(F)(F)F)cc2)n(-c2cccc(F)c2)n1` [Example 17], the IC50 amounted to 307 nM.

`COc1ccc(-n2nc(C)cc2Oc2ccccc2NC(=O)Nc2ccc(OC(F)(F)F)cc2)cc1` [Example 18]: the IC50 amounted to 731 nM.

As to `Cc1cc(Oc2ccccc2NC(=O)Nc2ccc(OC(F)(F)F)cc2)n(-c2c(Cl)cccc2Cl)n1` [Example 19], the IC50 was determined as 142 nM.

`Cc1cc(Oc2ccccc2NC(=O)Nc2ccc(OC(F)(F)F)cc2)n(-c2ccc(Cl)cc2Cl)n1` [Example 20]: the half-maximal inhibitory concentration (IC50) was found to be 150 nM.

In turn, `Cc1cc(Oc2ncccc2NC(=O)Nc2ccc(C(C)(C)C)cc2)n(-c2ccccc2)n1` [Example 21, 1-(4-tert-Butyl-phenyl)-3-[2-(5-methyl-2-phenyl-2H-pyrazol-3-yloxy)-pyridin-3-yl]-urea] came in with an IC50 of 272 nM.

`Cc1cc(Oc2ncccc2NC(=O)Nc2ccc(OC(F)(F)F)cc2)n(-c2ccccc2Cl)n1` [Example 22, 1-{2-[2-(2-Chloro-phenyl)-5-methyl-2H-pyrazol-3-yloxy]-pyridin-3-yl}-3-(4-trifluoromethoxy-phenyl)-urea] displayed an IC50 of 139 nM.

With `Cc1cc(Oc2ccncc2NC(=O)Nc2ccc(OC(F)(F)F)cc2)n(-c2ccccc2)n1` [Example 23, 1-[4-(5-Methyl-2-phenyl-2H-pyrazol-3-yloxy)-pyridin-3-yl]-3-(4-trifluoromethoxy-phenyl)-urea], the IC50 stood at 8990 nM.

Take `O=C(Nc1ccc(OC(F)(F)F)cc1)Nc1ccccc1Oc1ccnn1-c1ccccc1` [Example 24, 1-[2-(2-Phenyl-2H-pyrazol-3-yloxy)-phenyl]-3-(4-trifluoromethoxy-phenyl)-urea]: the IC50 is 306 nM.

On to `O=C(Nc1ccc(OC(F)(F)F)cc1)Nc1ccccc1Oc1ccnn1-c1ccccc1Cl` [Example 25, 1-{2-[2-(2-Chloro-phenyl)-2H-pyrazol-3-yloxy]-phenyl}-3-(4-trifluoromethoxy-phenyl)-urea], for which the IC50 came out at 268 nM.

The compound `CC(C)(C)c1ccc(NC(=O)Nc2ccccc2Oc2cc(C(=O)O)nn2-c2ccccc2)cc1` [Example 27, 5-{2-[3-(4-tert-Butyl-phenyl)-ureido]-phenoxy}-1-phenyl-1H-pyrazole-3-carboxylic acid] yielded a 50% inhibitory concentration (IC50) of 7220 nM.

In turn, `CCc1cc(Oc2ccccc2NC(=O)Nc2ccc(OC(F)(F)F)cc2)n(-c2ccccc2)n1` [Example 28, 1-[2-(5-Ethyl-2-phenyl-2H-pyrazol-3-yloxy)-phenyl]-3-(4-trifluoromethoxy-phenyl)-urea] showed a 50% inhibitory concentration (IC50) greater than 10000 nM.

Compound `CC(C)c1cc(Oc2ccccc2NC(=O)Nc2ccc(OC(F)(F)F)cc2)n(-c2ccccc2)n1` [Example 29, 1-[2-(5-Isopropyl-2-phenyl-2H-pyrazol-3-yloxy)-phenyl]-3-(4-trifluoromethoxy-phenyl)-urea] returned an IC50 greater than 10000 nM.

For `Cc1cc(Oc2cc(C)c(F)cc2NC(=O)Nc2ccc(OC(F)(F)F)cc2)n(-c2ccccc2)n1` [Example 30], the IC50 was 1240 nM.

`Cc1cc(Oc2ccc(C#N)cc2NC(=O)Nc2ccc(OC(F)(F)F)cc2)n(-c2ccccc2)n1` [Example 32] registered an IC50 greater than 10000 nM.

As to `COc1cccc(Oc2cc(C)nn2-c2ccccc2)c1NC(=O)Nc1ccc(OC(F)(F)F)cc1` [Example 33], the IC50 was greater than 10000 nM.

Turning to `Cc1cc(Oc2ccccc2NC(=O)Nc2cc(F)ccc2F)n(-c2ccccc2)n1` [Example 34], the half-inhibitory concentration (IC50) was determined as 800 nM.

Compound `Cc1cc(Oc2ccccc2NC(=O)Nc2cccc(C(F)(F)F)c2)n(-c2ccccc2)n1` [Example 36] yielded a half-maximal inhibitory concentration (IC50) of 1300 nM.

The compound `Cc1cc(Oc2ccccc2NC(=O)Nc2cccc(F)c2)n(-c2ccccc2)n1` [Example 38] returned a half-maximal inhibitory concentration (IC50) of 1910 nM.

`CSc1ccc(NC(=O)Nc2ccccc2Oc2cc(C)nn2-c2ccccc2)cc1` [Example 39] came in with a concentration for half-maximal inhibition (IC50) of 2220 nM.

The compound `CCOc1ccc(NC(=O)Nc2ccccc2Oc2cc(C)nn2-c2ccccc2)cc1` [Example 41] yielded an IC50 of 5060 nM.

Turning to `COc1ccc(NC(=O)Nc2ccccc2Oc2cc(C)nn2-c2ccccc2)cc1Cl` [Example 42], the half-maximal inhibitory concentration (IC50) was determined as 6980 nM.

In turn, `Cc1cc(C)cc(NC(=O)Nc2ccccc2Oc2cc(C)nn2-c2ccccc2)c1` [Example 43] displayed an IC50 of 7560 nM.

The compound `Cc1cc(Oc2ccccc2NC(=O)Nc2ccc(F)c(F)c2F)n(-c2ccccc2)n1` [Example 45] came in with a 50% inhibitory concentration (IC50) of 8850 nM.

In turn, `Cc1cc(Oc2ccccc2NC(=O)Nc2cccc(C#N)c2)n(-c2ccccc2)n1` [Example 46] had an IC50 greater than 10000 nM.

Turning to `Cc1cc(Oc2ccccc2NC(=O)Nc2cc(F)ccc2C)n(-c2ccccc2)n1` [Example 48], the half-maximal inhibitory concentration (IC50) is greater than 10000 nM.

For `COc1cc(NC(=O)Nc2ccccc2Oc2cc(C)nn2-c2ccccc2)cc(OC)c1OC` [Example 57], the IC50 was greater than 10000 nM.

In turn, `Cc1cc(Oc2ccccc2NC(=O)Nc2c(C)cccc2C)n(-c2ccccc2)n1` [Example 58] showed an IC50 greater than 10000 nM.

For `Cc1cc(Oc2ccccc2NC(=O)Nc2c(Cl)cccc2C(F)(F)F)n(-c2ccccc2)n1` [Example 59], the IC50 is greater than 10000 nM.

The compound `Cc1ccc(NC(=O)Nc2ccccc2Oc2cc(C)nn2-c2ccccc2)c(C)c1` [Example 60] gave a concentration for half-maximal inhibition (IC50) greater than 10000 nM.

For the compound `Cc1cc(Oc2ccccc2NC(=O)Nc2c(Cl)cccc2Cl)n(-c2ccccc2)n1` [Example 61], the IC50 was greater than 10000 nM.

For `Cc1cc(Oc2ccccc2NC(=O)Nc2c(C)cccc2Cl)n(-c2ccccc2)n1` [Example 62], the IC50 was greater than 10000 nM.

`Cc1cc(Oc2ccccc2NC(=O)Nc2c(C)cccc2C(C)(C)C)n(-c2ccccc2)n1` [Example 77] showed a 50% inhibitory concentration (IC50) greater than 10000 nM.

As to `Cc1ccc(C)c(NC(=O)Nc2ccccc2Oc2cc(C)nn2-c2ccccc2)c1` [Example 79], the 50% inhibitory concentration (IC50) is greater than 10000 nM.

In turn, `COc1cc(NC(=O)Nc2ccccc2Oc2cc(C)nn2-c2ccccc2)cc(OC)c1` [Example 80] gave an IC50 greater than 10000 nM.

As to `Cc1cc(Oc2ccccc2NC(=O)Nc2ccccc2Br)n(-c2ccccc2)n1` [Example 82], the IC50 is greater than 10000 nM.
